Measured values published in patent US20190046446A1, “APO-E MODIFIED LIPID NANOPARTICLES FOR DRUG DELIVERY TO TARGETED TISSUES AND THERAPEUTIC METHODS” (Eriochem USA, LLC, priority 2016, published 2019).
Where “and” joins values, the source holds several entries; their conditions need not be identical. Equal values may be shown once. Read-outs that look alike come from different tables or passages of the source.

Columns and labels:
[1] = system: PC3 (prostate cancer epithelial cells); assay: In vitro cytotoxicity assay (MTS), PC3; format: cell-based, human
Description: 50 μL of the cell suspensions were seeded in 96-well plates in duplicate with Dulbecco's basal medium plus 10% fetal bovine serum supplemented with 10% fetal bovine serum (FBS) for PC-3, and with DMEM/Ham's F12 medium containing 10% FBS, 1% 1-glutamine for A549 cell line. Both were maintained in culture for 24 hours. The cells were then treated with serial diluted concentrations of DCX starting from 100 nM and incubated for 48 hours. At the end of incubation, 20 μL/well of MTS/PMs solution (2 mL of MTS with 100 μL of PMS solution) were added. Then, plates were incubated at 37° C., 5% CO2 for 4 hours.
Absorbance values obtained from the in vitro cytotoxicity assay of DCX, Nano+DCX, and Nano+DCX+ApoE3 samples were plotted based on the DCX concentration employed, using OriginPro 8 software (ORIGINLAB Corporation, USA). The IC50 (nM) of each of the samples was determined at 50% of the maximum absorbance value obtained, corresponding to the value obtained for the growth control.

human plasma proteins = details: cited from earlier work
[2] = Pharmacokinetics of Docetaxel in plasma of rabbits; format: in vivo, New Zealand rabbits; details: iv, 2.5 mg/kg DCX; for half-life: New Zealand, rabbit, 2.5 mg/kg
Description: Changes in plasma drug concentration reflect changes in drug concentrations at the receptor site, as well as in other tissues.
The formulations were administered intravenously at doses equivalent to 2.5 mg/kg of DCX in each. […] Blood samples were taken at 0.5, 2, 8, and 24 hours from each animal in Groups A and C, and at 1, 4, 12, and 32 hours for each animal in Groups B and D. Then, the samples were pre-treated for analysis—the proteins were precipitated with acetonitrile and then extracted with a solid phase (SPE), evaporated, and resuspended for analysis. […] Any adjustment of the experimental data was performed by weighted nonlinear regression of at least squares using a bi-exponential descriptive model.
For this study, kd and kel were interpreted as the first order apparent distribution and elimination constants, respectively, and C1 and C2 were the coefficients of the adjustment model.
From the estimated values of C1, kd, C2, and kel, the following pharmacokinetic parameters were calculated, as shown in Table 10 below.
Clearance (CI) refers to the volume of blood that has completely cleared of the drug/unit time when it passes through a clearing organ.

New Zealand rabbits = assay: Blood counts (hemogram) in rabbits; details: iv, 3 cycles every 7 days;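 also: compound given into the marginal ear vein under ketamine-xylazine-acepromazine anesthesia, blood drawn from the ear central artery after sedation, seven samplings from one day before to day 20 after first dose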
Description: The intravenous administration was performed in the marginal ear vein and previously rabbits underwent anesthesia intramuscular injection by a combination of Ketamine-Xylazine-Acepromazine (2.4 mg/kg acepromazine, 48 mg/kg Ketamine and 5 mg/kg xylazine)
Blood samples were taken from the central artery of the ear, after sedation. A total of 7 samples were taken for each rabbit, and samples were taken a day before the first doses (−1), and on days 1, 6, 8, 13, 15 and 20 after the first dose.

[3] = system: VERO (monkey kidney epithelial cells); assay: In vitro cytotoxicity assay (MTS), VERO; format: cell-based

Work on `CC(=O)O[C@@]12CO[C@@H]1C[C@H](O)[C@@]1(C)C(=O)[C@H](O)C3=C(C)[C@@H](OC(=O)[C@H](O)[C@@H](NC(=O)OC(C)(C)C)c4ccccc4)C[C@@](O)([C@@H](OC(=O)c4ccccc4)[C@H]21)C3(C)C` [TAXOTERE, Docetaxel] yielded an IC50 ([1]; Homo sapiens, Epithelial cell, 48 h, Normal Serum, 48 hours, read-out: IC50 in PC3, individual tests) of 3.5 nM, an IC50 ([1]; Homo sapiens, Epithelial cell, LP-FREE SERUM, Table 18, read-out: IC50 PC3) of 30 nM and an IC50 ([1]; Homo sapiens, Epithelial cell, NORMAL SERUM, Table 18, read-out: IC50 PC3) of 4 nM. It also gave an IC50 ([1]; Homo sapiens, Epithelial cell, Normal Serum, average of tests, read-out: IC50 in PC3) of 3.5 ± 0.1 nM, an IC50 ([1]; Homo sapiens, Epithelial cell, Serum Free of Lipoprotein, average of tests, read-out: IC50 in PC3) of 30.2 ± 6.3 nM and an IC50 ([1]; Homo sapiens, Epithelial cell, prostate cancer cell cultures, without lipoproteins, read-out: IC50) of 30 nM. The “Si PC3” value ([1]; LP-FREE SERUM, SI=IC50 (Vero)/IC50 (PC3)) was 4, the IC50 ([1]; Normal Serum, 48 hours, listed as DCX, read-out: IC50 in PC3, individual tests) was 3.9 nM and 3.3 nM and 3.4 nM and the IC50 ([1]; Serum Free of Lipoprotein, 48 hours, listed as DCX, read-out: IC50 in PC3, individual tests) was 37.5 nM and 34.5 nM and 39 nM and 10 nM. The “times more toxic in the presence of lipoproteins” value ([1]; prostate cancer cell cultures) was 7.5 times, the “free Docetaxel (fu)” value (human plasma proteins; at 1.24 μM (1 μg/ml) plasma serum) was 0.082 µM and the “bound to plasma proteins” value (human plasma proteins; ultrafiltration at 37° C. and pH 7.4) was greater than 98%. The half-life ([2]; read-out: t1/2e1: Elimination half-life (converted)) was 19.7 h, the half-life ([2]; read-out: t1/2d: Distribution half-life (converted)) was 0.54 h and the “ABC0-∞: Area under the curve from time zero to infinity” value [2] was 1152.0 ng·h/mL. For the same compound, the “ABCex: Percentage of area under the curve extrapolated to infinity” value [2] was 26.0%, the “ABCtz-∞: Area under the curve from the last sampling time to infinity” value [2] was 299.0 ng·h/mL and the “C1: Coefficient of the first exponential term” value [2] was 295.1 ng/mL. For the same compound, the “C2: Coefficient of the second exponential term” value [2] was 32.5 ng/mL, the “Cz: Coefficient of last exponential term” value [2] was 10.52 ng/mL and the “kd: first order apparent distribution constant” value [2] was 0.000356 s⁻¹. The “ke1: first order apparent elimination constant” value [2] was 0.035 h⁻¹, the Hematocrit (New Zealand rabbits; Sample 1 (day -1)) was 40% and the MCH (New Zealand rabbits; Sample 1 (day -1)) was 20 pg. The MCHC (New Zealand rabbits; Sample 1 (day -1)) was 28 g/dL, the MCV (New Zealand rabbits; Sample 1 (day -1)) was 71 fL and the “Red Cells” value (New Zealand rabbits; Sample 1 (day -1)) was 5.7 × 10^6/mm^3. The “White Blood Cells” value (New Zealand rabbits; Sample 1 (day -1)) was 6720 /mm, the Hematocrit (New Zealand rabbits; Sample 2 (day 1)) was 37% and the MCH (New Zealand rabbits; Sample 2 (day 1)) was 20 pg. The MCHC (New Zealand rabbits; Sample 2 (day 1)) was 28 g/dL, the MCV (New Zealand rabbits; Sample 2 (day 1)) was 71 fL and the “Red Cells” value (New Zealand rabbits; Sample 2 (day 1)) was 5.2 × 10^6/mm^3. For the same compound, the “White Blood Cells” value (New Zealand rabbits; Sample 2 (day 1)) was 6175 /mm, the Hematocrit (New Zealand rabbits; Sample 3 (day 6)) was 37% and the MCH (New Zealand rabbits; Sample 3 (day 6)) was 20 pg. The MCHC (New Zealand rabbits; Sample 3 (day 6)) was 28 g/dL, the MCV (New Zealand rabbits; Sample 3 (day 6)) was 70 fL and the “Red Cells” value (New Zealand rabbits; Sample 3 (day 6)) was 5.2 × 10^6/mm^3. For the same compound, the “White Blood Cells” value (New Zealand rabbits; Sample 3 (day 6)) was 3800 /mm, the Hematocrit (New Zealand rabbits; Sample 4 (day 8)) was 39% and the MCH (New Zealand rabbits; Sample 4 (day 8)) was 19 pg. The MCHC (New Zealand rabbits; Sample 4 (day 8)) was 25 g/dL, the MCV (New Zealand rabbits; Sample 4 (day 8)) was 69 fL and the “Red Cells” value (New Zealand rabbits; Sample 4 (day 8)) was 5.6 × 10^6/mm^3. For the same compound, the “White Blood Cells” value (New Zealand rabbits; Sample 4 (day 8)) was 3500 /mm, the Hematocrit (New Zealand rabbits; Sample 5 (day 13)) was 24% and the MCH (New Zealand rabbits; Sample 5 (day 13)) was 19 pg. The MCHC (New Zealand rabbits; Sample 5 (day 13)) was 28 g/dL, the MCV (New Zealand rabbits; Sample 5 (day 13)) was 69 fL and the “Red Cells” value (New Zealand rabbits; Sample 5 (day 13)) was 3.9 × 10^6/mm^3. The “White Blood Cells” value (New Zealand rabbits; Sample 5 (day 13)) was 4000 /mm, the Hematocrit (New Zealand rabbits; Sample 6 (day 15)) was 31% and the MCH (New Zealand rabbits; Sample 6 (day 15)) was 20 pg. The MCHC (New Zealand rabbits; Sample 6 (day 15)) was 29 g/dL, the MCV (New Zealand rabbits; Sample 6 (day 15)) was 70 fL and the “Red Cells” value (New Zealand rabbits; Sample 6 (day 15)) was 4.4 × 10^6/mm^3. For the same compound, the “White Blood Cells” value (New Zealand rabbits; Sample 6 (day 15)) was 5500 /mm, the Hematocrit (New Zealand rabbits; Sample 7 (day 20)) was 19% and the MCH (New Zealand rabbits; Sample 7 (day 20)) was 20 pg. The MCHC (New Zealand rabbits; Sample 7 (day 20)) was 44 g/dL, the MCV (New Zealand rabbits; Sample 7 (day 20)) was 45 fL and the “Red Cells” value (New Zealand rabbits; Sample 7 (day 20)) was 4.2 × 10^6/mm^3. For the same compound, the “White Blood Cells” value (New Zealand rabbits; Sample 7 (day 20)) was 2900 /mm, the “signs after day 12” value (rabbits; rabbit, in vivo, 3.2 mg/kg) was “anorexia and adipsia” and the “dead animals after the first cycle of inoculation” value (rabbits; rabbits, 3.2 mg/kg Docetaxel) was “dead animals were found”. The “dead animals after the second cycle of inoculation” value (rabbits; rabbits, 3.2 mg/kg Docetaxel) was “dead animals were found”, the mortality / lethality (rabbits; rabbits, 3.2 mg/kg Docetaxel (4 ml/kg), three cycles) was 80% and the IC50 ([3]; Normal Serum, 48 hours, listed as DCX, read-out: IC50 in VERO, individual tests) was 145 nM and 140 nM and 150 nM. The IC50 ([3]; Primates, Vero, 48 h, Normal Serum, 48 hours, read-out: IC50 in VERO, individual tests) was 136 nM, the IC50 ([3]; Primates, Vero, 48 h, Serum Free of Lipoprotein, 48 hours, read-out: IC50 in VERO, individual tests) was 138 nM and the IC50 ([3]; Primates, Vero, LP-FREE SERUM, Table 18, read-out: IC50 Normal Cell (Vero)) was 129 nM. For the same compound, the IC50 ([3]; Primates, Vero, NORMAL SERUM, Table 18, read-out: IC50 Normal Cell (Vero)) was 143 nM, the IC50 ([3]; Primates, Vero, Normal Serum, average of tests, read-out: IC50 in VERO) was 143 ± 2.9 nM and the IC50 ([3]; Primates, Vero, Serum Free of Lipoprotein, average of tests, read-out: IC50 in VERO) was 129 ± 8.06 nM. The IC50 ([3]; Serum Free of Lipoprotein, 48 hours, listed as DCX, read-out: IC50 in VERO, individual tests) was 106 nM (2×) and 140 nM and 153 nM and 152 nM and 111 nM.
